Common to all, as to experiment: Large panel kinase profiling
Type in all cases: biochemical
Holding throughout (settings): 1 μM test article, 1 mM ATP

Test [1] deals with T1, SRMS (Homo sapiens, UniProt Q9H3Y6).
T1 construct: AssayQuant Technologies, Inc. (contract assay)
The gist of the method:
(§1)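 Reactions contain 1 mM ATP and 1 μM test article; the CSox peptide sensor reports phosphorylation as fluorescence gain. Temperature is held at 30° C. while signal (360 nm excitation, 485 nm emission) is recorded every 1 min.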

Test [2] addresses T2, TYRO3 (Homo sapiens, UniProt Q06418).
T2 construct: AssayQuant Technologies, Inc. (contract laboratory that ran the panel)
T2 sequence (Q06418 41-890): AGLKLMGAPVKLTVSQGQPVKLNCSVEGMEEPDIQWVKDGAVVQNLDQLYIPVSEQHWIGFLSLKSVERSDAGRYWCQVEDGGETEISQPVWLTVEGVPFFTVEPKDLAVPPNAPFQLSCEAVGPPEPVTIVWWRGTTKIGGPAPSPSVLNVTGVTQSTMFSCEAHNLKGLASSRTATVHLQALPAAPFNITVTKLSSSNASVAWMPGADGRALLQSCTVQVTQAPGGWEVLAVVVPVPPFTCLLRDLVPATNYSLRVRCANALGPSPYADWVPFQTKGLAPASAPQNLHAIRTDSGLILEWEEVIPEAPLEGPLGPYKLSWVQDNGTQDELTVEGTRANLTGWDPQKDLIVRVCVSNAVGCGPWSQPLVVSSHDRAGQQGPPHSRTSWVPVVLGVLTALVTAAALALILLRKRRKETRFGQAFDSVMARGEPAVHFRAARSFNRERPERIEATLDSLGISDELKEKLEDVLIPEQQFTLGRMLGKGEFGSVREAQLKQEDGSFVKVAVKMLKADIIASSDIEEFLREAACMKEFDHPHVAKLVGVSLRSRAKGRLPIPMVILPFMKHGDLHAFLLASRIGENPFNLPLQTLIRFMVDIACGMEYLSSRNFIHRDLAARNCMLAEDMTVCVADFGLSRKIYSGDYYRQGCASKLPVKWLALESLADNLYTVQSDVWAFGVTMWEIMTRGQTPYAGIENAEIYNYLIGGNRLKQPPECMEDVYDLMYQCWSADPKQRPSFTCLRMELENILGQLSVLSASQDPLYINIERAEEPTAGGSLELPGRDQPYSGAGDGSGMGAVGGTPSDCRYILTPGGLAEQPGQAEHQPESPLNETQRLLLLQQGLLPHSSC
Put shortly: as §1

The target of test [3] is T3, PRKCZ/PKCZ (Homo sapiens, UniProt Q05513).
T3 sequence (Q05513 1-592): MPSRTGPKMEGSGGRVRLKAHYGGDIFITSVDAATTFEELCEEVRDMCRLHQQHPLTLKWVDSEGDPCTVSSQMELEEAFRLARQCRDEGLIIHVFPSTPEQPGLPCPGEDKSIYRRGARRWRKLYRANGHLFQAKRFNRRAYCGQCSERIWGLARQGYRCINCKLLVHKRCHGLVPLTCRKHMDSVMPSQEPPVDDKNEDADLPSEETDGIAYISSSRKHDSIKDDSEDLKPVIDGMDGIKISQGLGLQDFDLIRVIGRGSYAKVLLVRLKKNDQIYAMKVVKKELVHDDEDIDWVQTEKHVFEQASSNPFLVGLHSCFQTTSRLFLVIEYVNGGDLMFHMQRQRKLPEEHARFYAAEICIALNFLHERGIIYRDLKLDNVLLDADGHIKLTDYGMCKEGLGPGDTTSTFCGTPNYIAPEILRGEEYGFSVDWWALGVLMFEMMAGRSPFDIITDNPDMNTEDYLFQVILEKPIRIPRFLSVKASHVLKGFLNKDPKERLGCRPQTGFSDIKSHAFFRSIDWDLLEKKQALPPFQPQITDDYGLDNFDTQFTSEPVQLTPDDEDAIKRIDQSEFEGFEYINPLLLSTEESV
Put shortly: as §1

The target in test [4] is T4, CDK6/D3 (Homo sapiens, UniProt Q00534).
T4 construct: AssayQuant Technologies, Inc. (ran the panel)
T4 sequence (Q00534 whole entry, species assumed): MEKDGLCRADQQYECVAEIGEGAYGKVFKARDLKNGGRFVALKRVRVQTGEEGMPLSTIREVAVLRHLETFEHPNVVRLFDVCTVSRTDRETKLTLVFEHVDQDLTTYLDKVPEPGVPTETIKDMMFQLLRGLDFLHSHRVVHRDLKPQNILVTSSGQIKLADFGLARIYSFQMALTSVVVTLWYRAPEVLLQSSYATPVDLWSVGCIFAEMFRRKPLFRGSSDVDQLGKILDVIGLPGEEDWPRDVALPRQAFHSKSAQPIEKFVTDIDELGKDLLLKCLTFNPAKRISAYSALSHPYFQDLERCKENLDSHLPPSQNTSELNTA
T4 sequence (P30281 whole entry partner, species assumed): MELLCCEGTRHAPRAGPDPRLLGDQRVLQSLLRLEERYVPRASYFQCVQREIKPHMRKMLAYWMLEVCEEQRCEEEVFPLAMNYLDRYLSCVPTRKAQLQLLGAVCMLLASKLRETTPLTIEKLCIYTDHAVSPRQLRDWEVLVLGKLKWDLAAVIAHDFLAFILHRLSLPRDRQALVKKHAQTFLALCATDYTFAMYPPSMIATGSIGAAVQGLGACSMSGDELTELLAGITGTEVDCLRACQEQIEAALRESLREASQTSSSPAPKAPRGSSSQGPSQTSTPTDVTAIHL
Put shortly: as §1

Test [5] has as its target T5, MST1R/RON (Homo sapiens, UniProt Q04912).
T5 construct: AssayQuant Technologies, Inc. (assay service)
The gist of the method: as §1

Test [6] concerns the target T6, MUSK (Homo sapiens, UniProt O15146).
T6 construct: AssayQuant Technologies, Inc. (assay service)
T6 sequence (O15146 24-869): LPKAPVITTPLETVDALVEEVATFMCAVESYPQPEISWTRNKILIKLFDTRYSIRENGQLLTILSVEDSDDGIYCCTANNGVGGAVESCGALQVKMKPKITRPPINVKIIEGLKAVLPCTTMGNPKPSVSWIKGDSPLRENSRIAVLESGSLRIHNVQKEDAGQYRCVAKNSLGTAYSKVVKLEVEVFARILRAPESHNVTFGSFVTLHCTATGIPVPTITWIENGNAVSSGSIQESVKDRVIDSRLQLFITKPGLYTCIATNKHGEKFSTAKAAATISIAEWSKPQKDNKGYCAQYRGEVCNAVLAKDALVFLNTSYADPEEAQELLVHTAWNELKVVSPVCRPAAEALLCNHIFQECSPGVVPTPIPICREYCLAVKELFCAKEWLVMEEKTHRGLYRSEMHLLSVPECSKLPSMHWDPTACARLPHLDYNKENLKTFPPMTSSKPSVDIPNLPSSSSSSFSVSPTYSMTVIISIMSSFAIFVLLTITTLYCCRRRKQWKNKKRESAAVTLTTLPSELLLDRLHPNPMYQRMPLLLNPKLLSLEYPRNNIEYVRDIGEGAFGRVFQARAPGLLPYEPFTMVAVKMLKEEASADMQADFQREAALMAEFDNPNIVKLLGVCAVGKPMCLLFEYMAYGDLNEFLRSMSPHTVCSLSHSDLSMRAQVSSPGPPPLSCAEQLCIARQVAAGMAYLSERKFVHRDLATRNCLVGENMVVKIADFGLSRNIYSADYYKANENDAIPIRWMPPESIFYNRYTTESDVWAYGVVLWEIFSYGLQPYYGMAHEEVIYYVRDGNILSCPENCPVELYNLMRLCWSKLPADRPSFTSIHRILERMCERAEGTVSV
Put shortly:
as §1

Test [7] addresses T7, STK10/LOK (Homo sapiens, UniProt O94804).
T7 construct: AssayQuant Technologies, Inc. (contract assay)
The gist of the method:
as §1

T7 sequence (O94804 whole entry): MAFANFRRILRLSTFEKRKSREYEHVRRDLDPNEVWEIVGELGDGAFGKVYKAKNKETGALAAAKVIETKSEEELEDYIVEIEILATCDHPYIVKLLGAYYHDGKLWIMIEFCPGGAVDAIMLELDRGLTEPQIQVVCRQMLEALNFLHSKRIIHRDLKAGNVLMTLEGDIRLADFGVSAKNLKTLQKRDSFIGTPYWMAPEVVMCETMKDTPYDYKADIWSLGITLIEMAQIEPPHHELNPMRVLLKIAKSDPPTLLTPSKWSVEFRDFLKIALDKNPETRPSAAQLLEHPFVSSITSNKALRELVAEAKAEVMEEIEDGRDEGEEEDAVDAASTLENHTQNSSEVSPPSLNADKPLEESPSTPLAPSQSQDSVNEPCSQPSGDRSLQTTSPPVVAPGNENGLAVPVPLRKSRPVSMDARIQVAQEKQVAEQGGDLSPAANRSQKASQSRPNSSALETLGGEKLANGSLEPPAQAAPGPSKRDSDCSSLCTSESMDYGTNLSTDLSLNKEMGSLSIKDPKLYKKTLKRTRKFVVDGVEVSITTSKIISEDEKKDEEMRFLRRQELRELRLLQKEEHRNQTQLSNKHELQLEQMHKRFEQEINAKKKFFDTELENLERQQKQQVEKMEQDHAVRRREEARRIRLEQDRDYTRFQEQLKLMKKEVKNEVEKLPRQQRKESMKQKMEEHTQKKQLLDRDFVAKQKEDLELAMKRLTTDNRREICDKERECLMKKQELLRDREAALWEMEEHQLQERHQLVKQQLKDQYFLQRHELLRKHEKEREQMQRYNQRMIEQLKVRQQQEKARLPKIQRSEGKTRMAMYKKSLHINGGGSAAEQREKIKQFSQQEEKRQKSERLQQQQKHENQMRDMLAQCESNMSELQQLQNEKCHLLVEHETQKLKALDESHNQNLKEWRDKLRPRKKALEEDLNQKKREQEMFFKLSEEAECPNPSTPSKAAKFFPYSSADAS
T5 sequence (Q04912 25-1400): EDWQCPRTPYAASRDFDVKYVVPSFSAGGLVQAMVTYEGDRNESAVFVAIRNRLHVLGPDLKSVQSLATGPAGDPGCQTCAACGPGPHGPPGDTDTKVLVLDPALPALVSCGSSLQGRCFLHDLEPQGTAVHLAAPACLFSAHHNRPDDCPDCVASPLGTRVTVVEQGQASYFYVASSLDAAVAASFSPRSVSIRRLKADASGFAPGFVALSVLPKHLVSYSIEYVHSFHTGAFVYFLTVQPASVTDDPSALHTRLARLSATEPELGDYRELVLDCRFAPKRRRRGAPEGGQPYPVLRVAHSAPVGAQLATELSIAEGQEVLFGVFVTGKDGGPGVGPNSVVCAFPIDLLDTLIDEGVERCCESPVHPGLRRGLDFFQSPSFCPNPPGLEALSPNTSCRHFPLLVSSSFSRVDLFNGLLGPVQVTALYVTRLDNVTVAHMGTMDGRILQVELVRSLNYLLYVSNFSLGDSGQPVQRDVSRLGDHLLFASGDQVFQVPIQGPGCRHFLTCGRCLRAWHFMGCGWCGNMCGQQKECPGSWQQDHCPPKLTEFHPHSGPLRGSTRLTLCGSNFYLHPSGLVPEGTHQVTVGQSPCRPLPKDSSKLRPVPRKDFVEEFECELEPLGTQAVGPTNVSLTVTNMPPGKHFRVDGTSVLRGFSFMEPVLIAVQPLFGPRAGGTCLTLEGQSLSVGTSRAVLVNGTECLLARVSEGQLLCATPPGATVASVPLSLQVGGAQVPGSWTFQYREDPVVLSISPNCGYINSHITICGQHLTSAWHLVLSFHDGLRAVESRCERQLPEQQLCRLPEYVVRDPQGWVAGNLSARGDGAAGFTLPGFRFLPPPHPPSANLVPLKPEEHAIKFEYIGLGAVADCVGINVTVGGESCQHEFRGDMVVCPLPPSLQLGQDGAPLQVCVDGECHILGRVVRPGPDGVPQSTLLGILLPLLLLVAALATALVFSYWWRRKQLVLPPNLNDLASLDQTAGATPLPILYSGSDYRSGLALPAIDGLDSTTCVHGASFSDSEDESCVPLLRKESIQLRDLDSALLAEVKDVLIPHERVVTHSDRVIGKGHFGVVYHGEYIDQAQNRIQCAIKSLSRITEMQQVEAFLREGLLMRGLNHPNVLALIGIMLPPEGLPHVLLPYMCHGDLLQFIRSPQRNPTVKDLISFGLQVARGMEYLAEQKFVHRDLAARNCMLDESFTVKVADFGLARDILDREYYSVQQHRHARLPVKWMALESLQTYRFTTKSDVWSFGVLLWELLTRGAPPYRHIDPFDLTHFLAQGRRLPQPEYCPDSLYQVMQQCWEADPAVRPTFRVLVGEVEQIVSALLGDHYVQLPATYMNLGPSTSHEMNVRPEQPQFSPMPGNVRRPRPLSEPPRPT
T1 sequence (Q9H3Y6 whole entry, species assumed): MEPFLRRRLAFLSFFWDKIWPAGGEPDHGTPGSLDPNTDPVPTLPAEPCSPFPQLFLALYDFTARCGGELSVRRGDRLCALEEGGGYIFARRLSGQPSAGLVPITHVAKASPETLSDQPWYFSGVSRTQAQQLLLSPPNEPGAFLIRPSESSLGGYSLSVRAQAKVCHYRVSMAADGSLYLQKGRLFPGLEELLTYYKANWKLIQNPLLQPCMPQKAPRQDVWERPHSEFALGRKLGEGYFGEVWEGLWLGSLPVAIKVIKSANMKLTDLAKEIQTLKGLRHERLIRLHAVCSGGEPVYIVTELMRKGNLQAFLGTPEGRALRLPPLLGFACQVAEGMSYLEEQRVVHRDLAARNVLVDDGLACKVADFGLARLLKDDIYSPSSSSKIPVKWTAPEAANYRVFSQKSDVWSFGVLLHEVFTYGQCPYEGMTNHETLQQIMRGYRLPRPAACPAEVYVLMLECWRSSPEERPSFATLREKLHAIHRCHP

For orientation: inhibition means the relative decrease from the control value, in per cent. Consider `C=CC(=O)N1CCCC(c2c(F)cc(C(N)=O)c3[nH]c4c(c23)CCCCC4)C1` (single isomer, unassigned) [Compound 5-6], for which the inhibition at 1 µM in test [1] is -10%; in test [2] it was 2.4%; in test [3], -4%; in test [4] it was -8%; in test [5], -2.4%; in test [6], 10.9%. Further, the inhibition at 1 µM in test [7] worked out at 3.1%.

`C=CC(=O)N1CCC[C@@H](c2c(F)cc(C(N)=O)c3[nH]c4c(c23)CC2(CC4)CC2)C1` [Compound 6-2, (S)-5-(1-acryloylpiperidin-3-yl)-6-fluoro-1,2,4,9-tetrahydrospiro[carbazole-3,1′-cyclopropane]-8-carboxamide]: the inhibition at 1 µM in test [1] was -35.5%; in test [2] it was 14.7%; in test [3] it was 8.5%; in test [4] it was -6.1%; in test [5], -0.6%; in test [6] it was -3.1%. In addition, the inhibition at 1 µM in test [7] stood at 12.2%.

For the compound `C=CC(=O)N1CCC[C@@H](c2c(F)cc(C(N)=O)c3[nH]c4c(c23)CCC4)C1` [Compound 10-2, (S)-8-(1-acryloylpiperidin-3-yl)-7-fluoro-1,2,3,4-tetrahydrocyclo-penta[b]indole-5-carboxamide], the inhibition at 1 µM was -32% in test [1]; 10.1% in test [2]; -4.2% in test [3]; -18.4% in test [4]; -2.5% in test [5]; 3% in test [6]. The inhibition at 1 µM in test [7] was -8.7%.

These data come from patent publication US20220009920A1 (GB005, Inc., priority 2020, published 2022).
